# Results from patent US9562057B2, “(Thieno[2,3-b][1,5]benzoxazepin-4-yl)piperazin-1-yl compounds as dual activity H1 inverse agonists/5-HT2A antagonists” (Eli Lilly and Company, priority 2013, dated 2017).
# Structures can show the parent of a compound that is named as a salt.
# Columns and labels:
# 5-HT2A Receptor = molecular target: T1, 5-HT2A Receptor (Rattus norvegicus, UniProt P14842); experiment: 5-HT2A receptor occupancy in vivo (MDL 100907 tracer); details: male Sprague-Dawley rats, oral gavage, 1 hr. before tracer, absolute ED50
# T1 construct: samples of the frontal cortex and cerebellum are removed; from tissue; host or cells: rat brain (frontal cortex versus cerebellum), in vivo
# Experimental: Briefly, male Sprague-Dawley rats (Harlan Sprague-Dawley, Indianapolis, Ind.) weighing approximately 230-280 grams are given ad lib access to food and water until the beginning of the 3-hr. experimental protocol. 1 mg/kg ketanserin (non-selective 5-HT2A antagonist) is used as a positive control to establish assay validity. Test compounds or control are administered by oral gavage in a vehicle comprised of 20% hydroxypropyl beta-cyclodextrin. MDL 100907 ((R)-(+)-α-(2,3-Dimethoxyphenyl)-1-[2-(4-fluorophenyl)ethyl]-4-piperidinemethanol), a selective 5-HT2A antagonist, is used as a tracer. […] It is at the time of tracer administration that RO is considered to be measured. […] The level of MDL 100907 tracer is measured in each cortical and cerebellar sample. RO is calculated using the well-established ratio method which employs a region of high receptor density representative of total binding (frontal cortex) normalized by an area without or with very low levels of receptor (cerebellum). […]
# Cortex and cerebellar samples are weighed and placed in conical centrifuge tubes on ice. […] Standards are prepared by adding known quantities of analyte to brain tissue samples from non-treated rats and processing as described above. […]
# Adrenergic alpha1A = Adrenergic alpha1A (Homo sapiens, UniProt P35348); experiment: Adrenergic alpha1A binding
# Description: Further, the compounds of the invention may be tested in binding assays and functional activity assays by well known methods for other physiologically important receptors such as, but not limited to, the hERG channel, other serotonin receptors (specifically 5-HT1B and 5-HT1D receptors, lack of agonist activity at 5-HT2B receptors, 5-HT2C, 5-HT5, 5-HT6, and 5-HT7 receptors), dopaminergic receptors (specifically D1, D2, and D3), GABAA receptors, adrenergic receptors and monoamine transporters.
# T1 sequence (P14842 whole entry): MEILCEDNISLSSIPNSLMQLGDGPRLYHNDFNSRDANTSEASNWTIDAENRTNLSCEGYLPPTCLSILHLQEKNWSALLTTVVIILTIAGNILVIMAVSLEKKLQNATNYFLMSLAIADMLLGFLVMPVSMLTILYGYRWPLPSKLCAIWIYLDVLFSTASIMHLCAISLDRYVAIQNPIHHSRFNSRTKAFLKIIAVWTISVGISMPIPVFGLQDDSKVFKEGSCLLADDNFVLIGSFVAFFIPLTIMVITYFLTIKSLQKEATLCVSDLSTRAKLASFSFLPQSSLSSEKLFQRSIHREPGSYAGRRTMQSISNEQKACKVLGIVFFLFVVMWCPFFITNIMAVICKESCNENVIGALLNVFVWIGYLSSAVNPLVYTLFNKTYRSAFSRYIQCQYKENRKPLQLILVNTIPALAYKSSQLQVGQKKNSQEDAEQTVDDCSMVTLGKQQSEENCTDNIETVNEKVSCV
# Adrenergic alpha1A, sequence (P35348 whole entry): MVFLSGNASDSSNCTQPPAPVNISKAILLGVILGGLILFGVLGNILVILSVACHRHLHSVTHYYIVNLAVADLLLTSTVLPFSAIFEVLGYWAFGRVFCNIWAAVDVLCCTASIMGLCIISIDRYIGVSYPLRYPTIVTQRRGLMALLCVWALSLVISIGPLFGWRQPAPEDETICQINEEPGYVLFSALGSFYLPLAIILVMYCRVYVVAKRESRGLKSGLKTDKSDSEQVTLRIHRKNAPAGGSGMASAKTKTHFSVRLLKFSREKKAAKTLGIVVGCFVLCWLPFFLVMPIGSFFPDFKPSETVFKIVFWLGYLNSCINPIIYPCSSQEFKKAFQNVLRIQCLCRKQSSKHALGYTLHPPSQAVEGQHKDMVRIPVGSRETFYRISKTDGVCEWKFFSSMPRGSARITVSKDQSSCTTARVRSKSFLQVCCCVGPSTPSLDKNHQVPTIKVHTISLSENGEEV
structure (smiles),measurement,setting,value
"Cc1ccc2c(c1)Oc1sc(C3CC3)cc1C(N1CCN(CC(C)(C)C(=O)O)CC1)=N2 [Example 2, 3-[4-(2-Cyclopropyl-8-methyl-thieno[2,3-b][1,5]benzoxazepin-4-yl)piperazin-1-yl]-2,2-dimethyl-propanoic acid dihydrochloride]",ED50,5-HT2A Receptor,0.41 mg/kg
same,Ki,Adrenergic alpha1A,4.62 µM
